In patent publication US20240417428A1, “POLYPEPTIDE FOR INHIBITING TRPM8 AND USE THEREOF” (ZHEJIANG UNIVERSITY, priority 2021, published 2024):
Where a SMILES comes first, the peptide text is derived from it.

What was measured:
Type in all cases: cell-based
TRPM8 = TRPM8 (Mus musculus, UniProt Q8R4D5); test: Whole-cell electrophysiological recording, menthol-activated TRPM8 in transfected HEK293T cells; set-up: expressed in transfected cells; host or cells: HEK293T; settings: whole-cell recording, menthol activation of TRPM8; read-out: half-inhibitory concentration (IC50) inhibiting TRPM8
Experimental: (§1) HEK293T cells were cultured in Dulbecco's modified Eagle culture medium under a 37° C., 5% CO2 environment, 10% fetal bovine serum, penicillin (100 U/mL), and streptomycin ([…]) was needed to add into the culture medium. Transient transfection was conducted by using Lipo 2000 (Invitrogen) transfection kit and following the instruction manual.
(§2) Electrophysiological experiment recordings were performed on the cells within 24˜48 h of transient transfections. Specifically, single channel electrophysiological recordings were performed within 8 h after transfection.
(§3) Measurement of the cell currents was respectively performed in the whole-cell recording mode, inside-out recording mode or outside-out recording mode with a HEKA EPC10 amplifier. In the whole cell electrophysiological recordings, glass microelectrodes made of borosilicate material were fire-polished to a original electrode resistance of about 3-6 MΩ. Serial resistance was compensated by 60%. The whole cell electrophysiological recordings were performed at ±80 mV. For single channel electrophysiological recordings, glass microelectrodes were fire-polished to a higher resistance of 6-8 MΩ2. Current signal was sampled at 10 kHz and filtered at 2.9 kHz. Membrane potential of the cell membrane would be clamped at +80 mV. All electrophysiological recordings were performed at room temperature (22° C.) (the maximum variation is 1° C.). […]

TRPV2 = molecular target: T1, TRPV2 (Homo sapiens, UniProt Q9Y5S1); test: Electrophysiological recording, ligand activation of TRPV2; settings: IC 50 TRPV2
T1 construct: expressed in transfected cells; host or cells: HEK293T
T1 sequence (Q9Y5S1 1-764): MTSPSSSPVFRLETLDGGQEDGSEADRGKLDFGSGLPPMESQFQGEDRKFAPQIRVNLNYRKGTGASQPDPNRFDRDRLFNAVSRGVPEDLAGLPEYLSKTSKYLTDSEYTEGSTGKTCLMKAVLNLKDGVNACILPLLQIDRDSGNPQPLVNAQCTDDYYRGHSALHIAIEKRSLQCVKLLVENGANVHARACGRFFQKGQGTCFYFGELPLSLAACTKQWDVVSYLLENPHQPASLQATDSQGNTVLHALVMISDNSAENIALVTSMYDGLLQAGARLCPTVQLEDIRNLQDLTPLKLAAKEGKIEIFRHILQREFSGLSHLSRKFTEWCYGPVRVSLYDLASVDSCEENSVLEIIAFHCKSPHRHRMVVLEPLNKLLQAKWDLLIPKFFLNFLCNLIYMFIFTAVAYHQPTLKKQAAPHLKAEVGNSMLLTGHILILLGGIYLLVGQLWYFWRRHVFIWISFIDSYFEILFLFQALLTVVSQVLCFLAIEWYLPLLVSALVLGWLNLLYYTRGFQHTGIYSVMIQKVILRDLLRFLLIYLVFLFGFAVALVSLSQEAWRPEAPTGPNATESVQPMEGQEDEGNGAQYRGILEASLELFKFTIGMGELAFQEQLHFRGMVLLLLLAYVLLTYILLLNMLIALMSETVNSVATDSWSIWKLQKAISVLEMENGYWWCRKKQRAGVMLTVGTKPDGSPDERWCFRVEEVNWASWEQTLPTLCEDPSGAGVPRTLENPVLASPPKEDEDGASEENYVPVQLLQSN
Experimental: as §1, §2, §3

TRPV1 = molecular target: T2, TRPV1 (Homo sapiens, UniProt Q8NER1); test: Electrophysiological recording, ligand activation of TRPV1
T2 construct: expressed in transfected cells; host or cells: HEK293T
Experimental: as §1, §2, §3

T2 sequence (Q8NER1 whole entry, species assumed): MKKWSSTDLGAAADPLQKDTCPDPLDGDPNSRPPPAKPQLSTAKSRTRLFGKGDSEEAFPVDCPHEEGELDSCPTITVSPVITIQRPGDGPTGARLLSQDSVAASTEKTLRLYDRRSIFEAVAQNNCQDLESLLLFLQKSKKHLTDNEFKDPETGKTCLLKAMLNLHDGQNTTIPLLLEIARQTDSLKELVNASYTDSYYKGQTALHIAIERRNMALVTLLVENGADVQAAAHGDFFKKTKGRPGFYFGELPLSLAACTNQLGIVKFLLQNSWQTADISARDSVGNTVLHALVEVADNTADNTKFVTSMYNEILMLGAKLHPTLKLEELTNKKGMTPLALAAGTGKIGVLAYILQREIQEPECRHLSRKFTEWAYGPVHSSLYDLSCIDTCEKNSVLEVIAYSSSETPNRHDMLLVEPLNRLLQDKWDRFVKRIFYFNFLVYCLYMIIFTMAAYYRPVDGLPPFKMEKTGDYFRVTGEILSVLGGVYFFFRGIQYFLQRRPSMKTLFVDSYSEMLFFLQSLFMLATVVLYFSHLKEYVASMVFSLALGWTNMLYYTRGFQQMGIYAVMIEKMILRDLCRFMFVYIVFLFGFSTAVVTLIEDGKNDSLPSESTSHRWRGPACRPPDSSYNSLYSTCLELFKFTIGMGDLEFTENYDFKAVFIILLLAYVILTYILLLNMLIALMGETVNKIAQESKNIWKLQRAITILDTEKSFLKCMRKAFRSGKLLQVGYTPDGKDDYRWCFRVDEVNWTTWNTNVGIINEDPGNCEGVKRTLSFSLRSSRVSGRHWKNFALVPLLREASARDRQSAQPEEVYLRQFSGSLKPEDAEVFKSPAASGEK
Sequence of TRPM8 (Q8R4D5 whole entry): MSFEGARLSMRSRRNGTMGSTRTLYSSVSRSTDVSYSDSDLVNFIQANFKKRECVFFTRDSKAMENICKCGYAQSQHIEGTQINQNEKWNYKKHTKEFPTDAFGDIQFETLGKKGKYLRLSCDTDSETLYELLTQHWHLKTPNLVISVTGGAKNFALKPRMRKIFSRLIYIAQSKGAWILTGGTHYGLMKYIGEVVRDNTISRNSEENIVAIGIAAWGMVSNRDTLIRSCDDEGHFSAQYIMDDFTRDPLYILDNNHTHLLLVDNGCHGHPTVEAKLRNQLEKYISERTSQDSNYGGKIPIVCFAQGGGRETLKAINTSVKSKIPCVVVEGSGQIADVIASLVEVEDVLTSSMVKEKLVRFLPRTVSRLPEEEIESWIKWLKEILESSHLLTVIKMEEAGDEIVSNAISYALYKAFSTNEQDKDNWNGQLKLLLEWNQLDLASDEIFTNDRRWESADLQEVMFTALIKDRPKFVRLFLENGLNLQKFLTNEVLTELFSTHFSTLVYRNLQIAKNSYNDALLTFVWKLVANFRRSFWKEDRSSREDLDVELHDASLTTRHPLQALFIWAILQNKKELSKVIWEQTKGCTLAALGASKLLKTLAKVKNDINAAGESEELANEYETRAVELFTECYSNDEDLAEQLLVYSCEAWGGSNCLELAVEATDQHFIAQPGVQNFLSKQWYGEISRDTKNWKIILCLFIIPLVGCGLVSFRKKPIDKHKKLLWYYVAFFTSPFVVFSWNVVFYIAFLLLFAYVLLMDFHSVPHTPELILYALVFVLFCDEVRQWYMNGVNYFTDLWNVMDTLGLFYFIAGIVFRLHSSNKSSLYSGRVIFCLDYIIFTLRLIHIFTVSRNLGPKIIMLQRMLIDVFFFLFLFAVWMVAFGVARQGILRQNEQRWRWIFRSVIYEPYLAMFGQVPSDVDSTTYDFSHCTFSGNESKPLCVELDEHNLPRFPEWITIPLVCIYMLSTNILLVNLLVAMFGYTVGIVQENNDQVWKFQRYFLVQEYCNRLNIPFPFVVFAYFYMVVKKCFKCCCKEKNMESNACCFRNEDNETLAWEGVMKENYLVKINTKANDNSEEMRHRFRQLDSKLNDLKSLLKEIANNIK

SMILES: C[C@@H]1NC(=O)[C@H](CCCNC(=N)N)NC(=O)[C@H](CC(=O)O)NC(=O)[C@H](CCCNC(=N)N)NC(=O)[C@H](CCCNC(=N)N)NC(=O)[C@@H](N)CSSC[C@@H](C(=O)O)NC(=O)[C@H](CCCNC(=N)N)NC(=O)[C@H](CCC(N)=O)NC(=O)[C@H](CCCNC(=N)N)NC(=O)[C@H](Cc2ccc(O)cc2)NC(=O)[C@H](Cc2c[nH]cn2)NC(=O)[C@H](CCCNC(=N)N)NC1=O [DeC-1.2, CRRDRARHYRQRC] (HELM PEPTIDE1{C.R.R.D.R.A.R.H.Y.R.Q.R.C}$PEPTIDE1,PEPTIDE1,1:R3-13:R3$$$V2.0; N-terminus and C-terminus assumed)
- IC50 (TRPM8): 4.5 ± 3 nM
- IC50 (TRPV2): > 5000 nM
- IC50 (TRPV1): > 100000 nM
- inhibition of ligand activation of TRPV1 (TRPV1; DeC-1.2 5 μM): failed to inhibit
